Measurements from the supplement of paper PMC10307832.

Key:
Experiment in all cases: relative viability (nuclei count vs DMSO), 5 days (fraction); higher = more cells survive
A-427 = system: A-427
Summary of the method: (§1)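 Lung cancer cell lines were pin-tool dosed in 1536-well plates on the day after seeding, with either a lone drug or a fixed anchor-drug dose plus five library-drug doses (not always all listed) in √10 steps. Nuclei were counted on 4× images after 5 days. Relative viability is the ratio of treated-well to vehicle-well nuclei counts, with each value a median of duplicate plates.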

BEN = system: BEN
Summary of the method: as §1

H3255 = system: H3255
Summary of the method: as §1

HCC-15 = system: HCC-15
Summary of the method: as §1

LC-2-ad = system: LC-2-ad
Summary of the method: as §1

LCLC-97TM1 = system: LCLC-97TM1
Summary of the method: as §1

NCI-H1395 = system: NCI-H1395
Summary of the method: as §1

NCI-H1650 = system: NCI-H1650
Summary of the method: as §1

NCI-H1651 = system: NCI-H1651
Summary of the method: as §1

NCI-H1755 = system: NCI-H1755
Summary of the method: as §1

NCI-H1792 = system: NCI-H1792
Summary of the method: as §1

NCI-H1993 = system: NCI-H1993
Summary of the method: as §1

NCI-H2009 = system: NCI-H2009
Summary of the method: as §1

NCI-H2085 = system: NCI-H2085
Summary of the method: as §1

NCI-H23 = system: NCI-H23
Summary of the method: as §1

NCI-H520 = system: NCI-H520
Summary of the method: as §1

NCI-H647 = system: NCI-H647
Summary of the method: as §1

NCI-H650 = system: NCI-H650
Summary of the method: as §1

NCI-H661 = system: NCI-H661
Summary of the method: as §1

NCI-H727 = system: NCI-H727
Summary of the method: as §1

NCI-H838 = system: NCI-H838
Summary of the method: as §1

PC-3 [JPC-3] = system: PC-3 [JPC-3]
Summary of the method: as §1

RERF-LC-KJ = system: RERF-LC-KJ
Summary of the method: as §1

SK-LU-1 = system: SK-LU-1
Summary of the method: as §1

SK-MES-1 = system: SK-MES-1
Summary of the method: as §1

Nc1cccc2c1CN(C1CCC(=O)NC1=O)C2=O (configuration not stated) [Lenalidomide] + COc1cccc2cc(-c3nc([C@H]4CC[C@H](C(=O)O)CC4)n4ncnc(N)c34)[nH]c12 [OSI-027] (partner 0.5 µM) was tested, and the relative viability (A-427; first compound 0.253 µM) was 0.48, the relative viability (A-427; first compound 0.8 µM) was 0.387 and the relative viability (A-427; first compound 2.53 µM) was 0.473. For the same compound, the relative viability (A-427; first compound 8 µM) was 0.514, the relative viability (BEN; first compound 0.253 µM) was 0.331 and the relative viability (BEN; first compound 0.8 µM) was 0.295. The relative viability (BEN; first compound 2.53 µM) was 0.316, the relative viability (BEN; first compound 8 µM) was 0.3 and the relative viability (H3255; first compound 0.253 µM) was 0.633. It also gave a relative viability (H3255; first compound 0.8 µM) of 0.65, a relative viability (H3255; first compound 2.53 µM) of 0.55 and a relative viability (H3255; first compound 8 µM) of 0.516. It also gave a relative viability (HCC-15; first compound 0.253 µM) of 0.705, a relative viability (HCC-15; first compound 0.8 µM) of 0.578 and a relative viability (HCC-15; first compound 2.53 µM) of 0.826. For the same compound, the relative viability (HCC-15; first compound 8 µM) was 0.689, the relative viability (LC-2-ad; first compound 0.253 µM) was 0.856 and the relative viability (LC-2-ad; first compound 2.53 µM) was 0.912. It also gave a relative viability (LC-2-ad; first compound 8 µM) of 0.887, a relative viability (LCLC-97TM1; first compound 0.253 µM) of 0.544 and a relative viability (LCLC-97TM1; first compound 0.8 µM) of 0.454. For the same compound, the relative viability (LCLC-97TM1; first compound 2.53 µM) was 0.661, the relative viability (LCLC-97TM1; first compound 8 µM) was 0.563 and the relative viability (NCI-H1395; first compound 0.253 µM) was 0.74. It also gave a relative viability (NCI-H1395; first compound 0.8 µM) of 0.501, a relative viability (NCI-H1395; first compound 2.53 µM) of 0.633 and a relative viability (NCI-H1395; first compound 8 µM) of 0.601. For the same compound, the relative viability (NCI-H1650; first compound 0.8 µM) was 0.546, the relative viability (NCI-H1650; first compound 2.53 µM) was 0.722 and the relative viability (NCI-H1650; first compound 8 µM) was 0.656. The relative viability (NCI-H1651; first compound 0.253 µM) was 0.772, the relative viability (NCI-H1651; first compound 0.8 µM) was 0.728 and the relative viability (NCI-H1651; first compound 2.53 µM) was 0.994. The relative viability (NCI-H1651; first compound 8 µM) was 0.919, the relative viability (NCI-H1755; first compound 0.253 µM) was 0.757 and the relative viability (NCI-H1755; first compound 0.8 µM) was 0.72. It also gave a relative viability (NCI-H1755; first compound 2.53 µM) of 0.79, a relative viability (NCI-H1755; first compound 8 µM) of 0.67 and a relative viability (NCI-H1792; first compound 0.253 µM) of 0.682. The relative viability (NCI-H1792; first compound 0.8 µM) was 0.709, the relative viability (NCI-H1792; first compound 2.53 µM) was 0.722 and the relative viability (NCI-H1792; first compound 8 µM) was 0.756. It also gave a relative viability (NCI-H1993; first compound 0.253 µM) of 0.401, a relative viability (NCI-H1993; first compound 0.8 µM) of 0.572 and a relative viability (NCI-H1993; first compound 2.53 µM) of 0.593. It also gave a relative viability (NCI-H1993; first compound 8 µM) of 0.607, a relative viability (NCI-H2009; first compound 0.253 µM) of 0.627 and a relative viability (NCI-H2009; first compound 0.8 µM) of 0.64. It also gave a relative viability (NCI-H2009; first compound 2.53 µM) of 0.779, a relative viability (NCI-H2009; first compound 8 µM) of 0.759 and a relative viability (NCI-H2085; first compound 0.253 µM) of 0.818. It also gave a relative viability (NCI-H2085; first compound 0.8 µM) of 0.518, a relative viability (NCI-H2085; first compound 2.53 µM) of 0.879 and a relative viability (NCI-H2085; first compound 8 µM) of 0.784. For the same compound, the relative viability (NCI-H23; first compound 0.253 µM) was 0.581, the relative viability (NCI-H23; first compound 0.8 µM) was 0.499 and the relative viability (NCI-H23; first compound 2.53 µM) was 0.742. The relative viability (NCI-H23; first compound 8 µM) was 0.502, the relative viability (NCI-H520; first compound 0.253 µM) was 0.284 and the relative viability (NCI-H520; first compound 0.8 µM) was 0.25. For the same compound, the relative viability (NCI-H520; first compound 2.53 µM) was 0.311, the relative viability (NCI-H520; first compound 8 µM) was 0.281 and the relative viability (NCI-H647; first compound 0.253 µM) was 0.587. For the same compound, the relative viability (NCI-H647; first compound 0.8 µM) was 0.551, the relative viability (NCI-H647; first compound 2.53 µM) was 1.02 and the relative viability (NCI-H647; first compound 8 µM) was 0.744. It also gave a relative viability (NCI-H650; first compound 0.253 µM) of 0.528, a relative viability (NCI-H650; first compound 2.53 µM) of 0.577 and a relative viability (NCI-H650; first compound 8 µM) of 0.472. For the same compound, the relative viability (NCI-H661; first compound 0.253 µM) was 0.722, the relative viability (NCI-H661; first compound 0.8 µM) was 0.689 and the relative viability (NCI-H661; first compound 2.53 µM) was 0.849. For the same compound, the relative viability (NCI-H661; first compound 8 µM) was 0.729, the relative viability (NCI-H727; first compound 0.253 µM) was 0.523 and the relative viability (NCI-H727; first compound 0.8 µM) was 0.446. For the same compound, the relative viability (NCI-H727; first compound 2.53 µM) was 0.609, the relative viability (NCI-H727; first compound 8 µM) was 0.562 and the relative viability (NCI-H838; first compound 0.253 µM) was 0.399. It also gave a relative viability (NCI-H838; first compound 0.8 µM) of 0.34, a relative viability (NCI-H838; first compound 2.53 µM) of 0.459 and a relative viability (NCI-H838; first compound 8 µM) of 0.383. For the same compound, the relative viability (PC-3 [JPC-3]; first compound 0.253 µM) was 0.832, the relative viability (PC-3 [JPC-3]; first compound 0.8 µM) was 0.569 and the relative viability (PC-3 [JPC-3]; first compound 2.53 µM) was 0.769. The relative viability (PC-3 [JPC-3]; first compound 8 µM) was 0.818, the relative viability (RERF-LC-KJ; first compound 0.253 µM) was 0.57 and the relative viability (RERF-LC-KJ; first compound 0.8 µM) was 0.615. It also gave a relative viability (RERF-LC-KJ; first compound 2.53 µM) of 0.643, a relative viability (RERF-LC-KJ; first compound 8 µM) of 0.644 and a relative viability (SK-LU-1; first compound 0.253 µM) of 0.313. It also gave a relative viability (SK-LU-1; first compound 0.8 µM) of 0.361, a relative viability (SK-LU-1; first compound 2.53 µM) of 0.36 and a relative viability (SK-LU-1; first compound 8 µM) of 0.421. The relative viability (SK-MES-1; first compound 0.253 µM) was 0.573, the relative viability (SK-MES-1; first compound 0.8 µM) was 0.703 and the relative viability (SK-MES-1; first compound 2.53 µM) was 0.63. It also gave a relative viability (SK-MES-1; first compound 8 µM) of 0.613.
